From patent publication US20210196737A1, “USE OF TREZASTILBENOSIDE IN MANUFACTURE OF PRODUCT FOR TREATING AND/OR PREVENTING NON-ALCOHOLIC FATTY LIVER DISEASE” (KPC PHARMACEUTICALS, INC., priority 2019, published 2021)

Columns and labels:
[1] = safety research mentioned in background; cited from earlier work
[2] = safety research mentioned in background; cited from earlier work; remark: listed apart in the source
[3] = test system: non-alcoholic fatty liver disease (NAFLD) model mice; test: Levels of serum TC, TG, HDL, LDL, AST and ALT in NAFLD model mice; assay type: in vivo, C57BL/6 mice; details: x ± s, n=10
Text: (§1) After 1 week of adaptive feeding, 44 C57 mice were divided into a control group (12 mice) and a model group (32 mice) according to the random number method. The normal control group was given ordinary diet, and the model group was given high-sugar and high-fat diet. After feeding for 8 weeks, randomly select 2 animals in each of the control group and the model group. After pathological examination confirmed that the modeling was successful, the model animals were divided into groups.
(§2) The model animals were divided according to random number method into 3 groups of 10 mice each, namely model control group (equal volume of sodium chloride injection solution), Trezastilbenoside high dose group (20 mg/kg) and Trezastilbenoside low dose group (10 mg/kg). The mice in each administration group were administered intragastrically with the corresponding drug, once a day continuously for 4 weeks, while being fed with the high-sugar and high-fat feed continuously. The mice in the normal control group (equal volume of sodium chloride injection solution) were feed with the ordinary feed.
About 1 mL of blood, taken via mouse eyeballs, was placed into a 1.5 mL centrifuge tube, and then centrifuged at 3000 r/min for 10 min to obtain the supernatant. The levels of TC, TG, HDL, LDL, AST and ALT in the serum were measured with a microplate reader strictly under the operating instructions of the assay kit.

[4] = test system: non-alcoholic fatty liver disease (NAFLD) model mice; test: TC and TG content in liver tissue of NAFLD model mice; assay type: in vivo, C57BL/6 mice
Text: as §1, §2
About 100 mg of liver tissue weighed, was put into 900 μL absolute ethanol to make a 10% tissue homogenate under an ice bath. Then the supernatant was separated out through a centrifugation separation at 3000 r/min for 15 min, and collected into a 1.5 mL centrifuge tube for the measurement of TC and TG content in the liver tissue.

[5] = test system: non-alcoholic fatty liver disease (NAFLD) model mice; test: Gross observation and HE staining of liver of NAFLD model mice; assay type: in vivo, C57BL/6 mice
Text: as §1, §2
The fresh liver tissue was immersed and fixed in 4% formaldehyde solution overnight for 24 h, dehydrated through 75%-95%-100% ethanol gradient, embedded in paraffin, sectioned into 4 μm, and conventionally stained with hematoxylin-eosin, to observe the pathological changes of the liver tissue under an optical microscope (HE, 200×).

[6] = test system: non-alcoholic fatty liver disease (NAFLD) model mice; test: Body weight, wet liver weight and liver index in high-sugar high-fat diet NAFLD model mice; assay type: in vivo, C57BL/6 mice; details: for Weight: high-sugar high-fat feed; for Weight / Wet liver weight: mean ± s, n=10
Text: as §1, §2
After the last administration, the mice were fasted but had access to water for 12 h, and then sacrificed after blood was taken. The body mass and liver mass of each mouse were weighed to calculate the liver index by the following formula.
liver index=(liver wet mass/body mass)×100% (wet liver mass/body mass).

[7] = high dose 20 mg/kg intragastric 4 weeks
[8] = low dose 10 mg/kg intragastric 4 weeks
[9] = HE, 200x, Trezastilbenoside group
[10] = high dose 20 mg/kg intragastric once a day for 4 weeks
[11] = low dose 10 mg/kg intragastric once a day for 4 weeks

Q: Which “Toxic side reactions and death in acute toxicity tests” value [1] does the source give for OC[C@H]1O[C@@H](Oc2cc(/C=C/c3cc(O)cc(O)c3)ccc2O)[C@H](O)[C@@H](O)[C@@H]1O [Trezastilbenoside] here?
A: no toxic side reactions and death occurred

Q: And the “Chromosome aberrations or mutagenesis in the genetic test” value [2]?
A: no chromosome aberrations or mutagenesis were found

Q: And the “ALT (U/L)” value [3, 7]?
A: 78.30 ± 11.53 U/L

Q: And the “AST (U/L)” value [3, 7]?
A: 118.92 ± 10.75 U/L

Q: What about the “HDL” value [3, 7] of the same compound?
A: 0.45 ± 0.16 mmol/L

Q: And the “LDL” value [3, 7]?
A: 0.41 ± 0.30 mmol/L

Q: What about the “TC” value [3, 7] of the same compound?
A: 3.43 ± 0.17 mmol/L

Q: What about the “TG” value [3, 7] of the same compound?
A: 0.99 ± 0.11 mmol/L

Q: What about the “ALT (U/L)” value [3, 8] of the same compound?
A: 122.45 ± 27.37 U/L

Q: What about the “AST (U/L)” value [3, 8] of the same compound?
A: 147.73 ± 52.98 U/L

Q: What about the “HDL” value [3, 8] of the same compound?
A: 0.27 ± 0.67 mmol/L

Q: What about the “LDL” value [3, 8] of the same compound?
A: 0.47 ± 0.13 mmol/L

Q: And the “TC” value [3, 8]?
A: 5.53 ± 0.52 mmol/L

Q: What about the “TG” value [3, 8] of the same compound?
A: 2.67 ± 0.19 mmol/L

Q: What about the “TC” value [4, 7] of the same compound?
A: 4.23 ± 0.87 mg/g

Q: What about the “TG” value [4, 7] of the same compound?
A: 1.96 ± 0.99 mg/g

Q: And the “TC” value [4, 8]?
A: 6.53 ± 0.59 mg/g

Q: What about the “TG” value [4, 8] of the same compound?
A: 2.12 ± 0.58 mg/g

Q: And the “HE observation of mouse liver: fat droplets and pathological morphology, compared with the model group” value [5, 9]?
A: smaller and fewer, the pathological morphology of liver tissue was significantly improved

Q: And the “HE observation of mouse liver: infiltration of inflammatory cells” value [5, 9]?
A: the infiltration of inflammatory cells was not obvious

Q: And the “Gross observation of mouse liver: colour, texture and shape” value ([5]; low and high dose groups (10 and 20 mg/kg))?
A: between the normal control group and the model group, and the texture and shape tended to be normal

Q: And the “Obesity induced by high sugar and high fat, compared with the model group” value ([6]; Trezastilbenoside administration group, 4 weeks intragastric)?
A: has a tendency to reduce the obesity induced by high sugar and high fat in mice

Q: And the “Weight” value [6, 10]?
A: 33.8 ± 0.74 g

Q: What about the “Liver index (%)” value ([6]; high dose 20 mg/kg intragastric once a day for 4 weeks, liver wet mass/body mass x 100%) of the same compound?
A: 0.51 ± 0.05 %

Q: What about the “Wet liver weight” value [6, 10] of the same compound?
A: 1.72 ± 2.7 g

Q: What about the “Weight” value [6, 11] of the same compound?
A: 35.0 ± 0.62 g

Q: And the “Wet liver weight” value [6, 11]?
A: 1.84 ± 3.0 g
